Laboratory results published in patent US7662853B2, “Monoacetyldiacylglycerol derivative for the treatment of sepsis” (priority 2004, dated 2010).

What was measured:
Monocytes = Monocytes proliferation (3H-thymidine incorporation, SI); assay type: cell-based; conditions: human monocytes, 1 μg/ml, 7th day
Method: Monocytes were isolated from human whole blood using Histopaque 1077. And then, monocytes (5×10^6 cells/ml) were allowed to adhere to tissue culture flask for 3 hours in a 5% CO2 incubator. After 3 hours, non-adherent cells were removed and adherent cells were placed in 96-well plates in RPMI 1640 medium (GIBCO, Grand Island, N.Y.) supplemented with 10% FBS. 5×10^4 viable cells per well were cultured in 96-well plates, with 1 μg/ml of Compound 1˜5. On the 6th day, cells were incubated with 1 μCi ^3H-thymidine/well for 24 hours. On the 7th day, the cells were harvested and the incorporation of ^3H-thymidine was measured. Si was calculated by the above mentioned formula 1.

T-cells = assay: T-cell proliferation (3H-thymidine incorporation, SI); assay type: cell-based, C57BL/6 mice; conditions: 1 μg/ml, 7th day, CPM in sample/CPM in control
Text: Splenocytes were collected from C57BL/6 mice (provided from Asan Institute for Life Sciences Animal Lab., Seoul, Korea) spleens. Then, single cell suspensions were obtained by repeated aspiration and flushing. Red blood cells were removed using ammonium chloride and then passed through nylon wool to remove debris and clumps. T-cells were purified using magnetic bead (MACS bead, Miltenyi Biotec, bergich gladbach, Germany) containing anti-goat IgG MACS bead, Miltenyi Biotec, bergich gladbach, Germany) or anti-mouse CD4 (MACS bead, Miltenyi Biotec, bergich gladbach, Germany) or anti-mouse CD8 antibody (MACS bead, Miltenyi Biotec, bergich gladbach, Germany) (Turner and Dockrell (1996) Immunology, 87: 339-342).
T cell suspensions were suspended in Isocove's modified Dulbecco's medium (IMDM, Gibco, Grand Island, N.Y.) supplemented with 10% fetal bovine serum (referred as ‘FBS’ hereinafter) (Gibco, Grand Island, N.Y.). […] On the 6th day, cells were incubated with 1 μCi ^3H-thymidine/well for 24 hours. On the 7th day, the cells were harvested and the […] (referred as ‘SI’ hereinafter) was calculated by the following Mathematical Formula 1. SI=^3H-thymidine absorbed by wells of experimental group (CPM in sample)/^3H-thymidine absorbed by wells of control group (CPM in control) [Mathematical Formula 1]

**Q.** For `CCCCCCCC/C=C\CCCCCCCC(=O)OCC(COC(C)=O)OC(=O)CCCCCCCCCCCCCCC` (centres unmarked) [Compound 1, 1-oleoyl-2-2palmitoyl-3-acetylglycerol], which “SI (±S.E)” value (Monocytes) is on record?
**A.** Its value is 9.97 ± 0.10.

**Q.** What about the SI (T-cells) of the same compound?
**A.** The SI was 2.01 ± 0.43.

**Q.** Which results are given for `CCCCCCCC/C=C\CCCCCCCC(=O)OC(COC(C)=O)COC(=O)CCCCCCCCCCCCCCC` (centres unmarked) [Compound 2, 1-palmitoyl-2-oleoyl-3-acetylglycerol]?
**A.** SI (±S.E) (Monocytes): 10.42 ± 0.15; SI (T-cells): 2.03 ± 0.54

**Q.** Which results are given for `CC/C=C\C/C=C\C/C=C\CCCCCCCC(=O)OC(COC(C)=O)COC(=O)CCCCCCCCCCCCCCC` (centres unmarked) [Compound 4, 1-palmitoyl-2-linolenoyl-3-acetylglycerol]?
**A.** SI (±S.E) (Monocytes): 10.21 ± 0.18; SI (T-cells): 1.98 ± 0.26

**Q.** What does the source list for `CCCCC/C=C\C/C=C\C/C=C\C/C=C\CCCC(=O)OC(COC(C)=O)COC(=O)CCCCCCCCCCCCCCC` (centres unmarked) [Compound 5, 1-palmitoyl-2-arachidonoyl-3-acetylglycerol]?
**A.** SI (±S.E) (Monocytes): 9.75 ± 0.09; SI (T-cells): 2.02 ± 0.38
